US8357694B2, “Substituted 5,6-dihydro-6-phenylbenzo[F]isoquinolin-2-amine compounds” (ArQule, Inc., priority 2008, dated 2013)
Where a name gives a salt, the structure may show the parent alone.

Compound	melting point [°C]
CN(C)CCc1ccc(Nc2ncc3c(n2)-c2ccccc2[C@H](c2ccc(F)c(F)c2)C3)cc1 (as salt: hydrochloride) [Example 87, (S)-6-(3,4-difluorophenyl)-N-(4-(2-(dimethylamino)ethyl)phenyl)-5,6-dihydrobenzo[h]quinazolin-2-amine hydrochloride]	165 to 167
CN1CCN(CCc2ccc(Nc3ncc4c(n3)-c3ccccc3[C@H](c3ccc(F)c(F)c3)C4)cc2)CC1 (as salt: hydrochloride) [Example 88, (S)-6-(3,4-difluorophenyl)-N-(4-(2-(4-methylpiperazin-1-yl)ethyl)phenyl)-5,6-dihydrobenzo[h]quinazolin-2-amine hydrochloride]	90 to 92
CCCCN(C)CCc1ccc(Nc2ncc3c(n2)-c2ccccc2[C@H](c2ccc(F)c(F)c2)C3)cc1 (as salt: hydrochloride) [Example 89, (S)—N-(4-(2-(butyl(methyl)amino)ethyl)phenyl)-6-(3,4-difluorophenyl)-5,6-dihydrobenzo[h]quinazolin-2-amine hydrochloride]	130 to 132
COCCN1CCN(CCc2ccc(Nc3ncc4c(n3)-c3ccccc3[C@@H](c3ccc(F)c(F)c3)C4)cc2)CC1 (as salt: hydrochloride) [Example 90, (R)-6-(3,4-difluorophenyl)-N-(4-(2-(4-(2-methoxyethyl)piperazin-1-yl)ethyl)phenyl)-5,6-dihydrobenzo[h]quinazolin-2-amine hydrochloride]	190 to 192
Fc1ccc([C@H]2Cc3cnc(Nc4ccc(CCN5CCCCC5)cc4)nc3-c3ccccc32)cc1F (as salt: hydrochloride) [Example 91, (R)-6-(3,4-difluorophenyl)-N-(4-(2-(piperidin-1-yl)ethyl)phenyl)-5,6-dihydrobenzo[h]quinazolin-2-amine hydrochloride]	165 to 167
Fc1ccc([C@@H]2Cc3cnc(Nc4ccc(CCN5CCOCC5)cc4)nc3-c3ccccc32)cc1F (as salt: hydrochloride) [Example 92, (S)-6-(3,4-difluorophenyl)-N-(4-(2-morpholinoethyl)phenyl)-5,6-dihydrobenzo[h]quinazolin-2-amine hydrochloride]	97 to 99
CN(CCc1ccccc1)CCc1ccc(Nc2ncc3c(n2)-c2ccccc2[C@H](c2ccccc2F)C3)cc1 (as salt: hydrochloride) [Example 93, (R)-6-(2-fluorophenyl)-N-(4-(2-(methyl(phenethyl)amino)ethyl)phenyl)-5,6-dihydrobenzo[h]quinazolin-2-amine hydrochloride salt]	135 to 145
COCCNCCc1ccc(Nc2ncc3c(n2)-c2ccccc2[C@H](c2ccccc2F)C3)cc1 (as salt: hydrochloride) [Example 94, (R)-6-(2-fluorophenyl)-N-(4-(2-(2-methoxyethylamino)ethyl)phenyl)-5,6-dihydrobenzo[h]quinazolin-2-amine hydrochloride salt]	198 to 201
CCCCN(C)CCc1ccc(Nc2ncc3c(n2)-c2ccccc2[C@H](c2ccc(F)c(F)c2)C3)cc1 (as salt: hydrochloride) [Example 96, (S)—N-(4-(2-(butyl(methyl)amino)ethyl)phenyl)-6-(3,4-difluorophenyl)-5,6-dihydrobenzo[h]quinazolin-2-amine hydrochloride salt]	145 to 150
COCCN1CCN(CCc2ccc(Nc3ncc4c(n3)-c3ccccc3[C@H](c3ccc(Br)cc3)C4)cc2)CC1 (as salt: hydrochloride) [Example 97, (S)-6-(4-bromophenyl)-N-(4-(2-(4-(2-methoxyethyl)piperazin-1-yl)ethyl)phenyl)-5,6-dihydrobenzo[h]quinazolin-2-amine hydrochloride salt]	265 to 270
CCCCN(C)CCc1ccc(Nc2ncc3c(n2)-c2ccccc2[C@H](c2ccc(Br)cc2)C3)cc1 (as salt: hydrochloride) [Example 98, (S)-6-(4-bromophenyl)-N-(4-(2-(butyl(methyl)amino)ethyl)phenyl)-5,6-dihydrobenzo[h]quinazolin-2-amine hydrochloride salt]	170 to 175
Brc1ccc([C@@H]2Cc3cnc(Nc4ccc(CCN5CCCCC5)cc4)nc3-c3ccccc32)cc1 (as salt: hydrochloride) [Example 103, (S)-6-(4-bromophenyl)-N-(4-(2-(piperidin-1-yl)ethyl)phenyl)-5,6-dihydrobenzo[h]quinazolin-2-amine hydrochloride salt]	205 to 210
CN(CCc1ccccc1)CCc1ccc(Nc2ncc3c(n2)-c2ccccc2[C@H](c2ccc(Cl)c(Cl)c2)C3)cc1 (as salt: hydrochloride) [Example 104, (S)-6-(3,4-dichlorophenyl)-N-(4-(2-(methyl(phenethyl)amino)ethyl)phenyl)-5,6-dihydrobenzo[h]quinazolin-2-amine hydrochloride salt]	170 to 175
CCCCN(C)CCc1ccc(Nc2ncc3c(n2)-c2ccccc2[C@H](c2ccc(Cl)c(Cl)c2)C3)cc1 (as salt: hydrochloride) [Example 105, (S)—N-(4-(2-(butyl(methyl)amino)ethyl)phenyl)-6-(3,4-dichlorophenyl)-5,6-dihydrobenzo[h]quinazolin-2-amine hydrochloride salt]	135 to 145
CN(CCc1ccc(Nc2ncc3c(n2)-c2ccccc2[C@H](c2ccc(Cl)c(Cl)c2)C3)cc1)C1CCCCC1 (as salt: hydrochloride) [Example 106, (S)—N-(4-(2-(cyclohexyl(methyl)amino)ethyl)phenyl)-6-(3,4-dichlorophenyl)-5,6-dihydrobenzo[h]quinazolin-2-amine hydrochloride salt]	175 to 185
CCCCN(C)CCc1ccc(Nc2ncc3c(n2)-c2ccccc2[C@@H](c2ccc(Br)cc2)C3)cc1 (as salt: hydrochloride) [Example 107, (R)-6-(4-bromophenyl)-N-(4-(2-(butyl(methyl)amino)ethyl)phenyl)-5,6-dihydrobenzo[h]quinazolin-2-amine hydrochloride salt]	140 to 145
Brc1ccc([C@H]2Cc3cnc(Nc4ccc(CCN5CCCCC5)cc4)nc3-c3ccccc32)cc1 (as salt: hydrochloride) [Example 108, (R)-6-(4-bromophenyl)-N-(4-(2-(piperidin-1-yl)ethyl)phenyl)-5,6-dihydrobenzo[h]quinazolin-2-amine hydrochloride salt]	170 to 175
CCCCN(C)CCc1ccc(Nc2ncc3c(n2)-c2ccccc2[C@H](c2ccccc2F)C3)cc1 (as salt: hydrochloride) [Example 110, (R)—N-(4-(2-(butyl(methyl)amino)ethyl)phenyl)-6-(2-fluorophenyl)-5,6-dihydrobenzo[h]quinazolin-2-amine hydrochloride]	78 to 81
COCCN1CCN(CCc2ccc(Nc3ncc4c(n3)-c3ccccc3[C@H](c3ccc(Cl)cc3)C4)cc2)CC1 (as salt: hydrochloride) [Example 113, (S)-6-(4-chlorophenyl)-N-(4-(2-(4-(2-methoxyethyl)piperazin-1-yl)ethyl)phenyl)-5,6-dihydrobenzo[α]quinazolin-2-amine hydrochloride]	261 to 263
CN1CCN(CCc2ccc(Nc3ncc4c(n3)-c3ccccc3[C@H](c3ccc(Cl)c(Cl)c3)C4)cc2)CC1 (as salt: hydrochloride) [Example 114, (S)-6-(3,4-dichlorophenyl)-N-(4-(2-(4-methylpiperazin-1-yl)ethyl)phenyl)-5,6-dihydrobenzo[h]quinazolin-2-amine hydrochloride]	236 to 238
COCCN1CCN(CCc2ccc(Nc3ncc4c(n3)-c3ccccc3[C@H](c3ccc(Cl)c(Cl)c3)C4)cc2)CC1 (as salt: hydrochloride) [Example 115, (S)-6-(3,4-dichlorophenyl)-N-(4-(2-(4-(2-methoxyethyl)piperazin-1-yl)ethyl)phenyl)-5,6-dihydrobenzo[h]quinazolin-2-amine hydrochloride]	248 to 250
Fc1ccccc1[C@@H]1Cc2cnc(Nc3cccc(CCN4CCNCC4)c3)nc2-c2ccccc21 (as salt: hydrochloride) [Example 160, (R)-6-(2-fluorophenyl)-N-(3-(2-(piperazin-1-yl)ethyl)phenyl)-5,6-dihydrobenzo[h]quinazolin-2-amine hydrochloride]	193 to 199
CN1CCN(CCc2cccc(Nc3ncc4c(n3)-c3ccccc3[C@H](c3ccccc3F)C4)c2)CC1 (as salt: hydrochloride) [Example 161, (R)-6-(2-fluorophenyl)-N-(3-(2-(4-methylpiperazin-1-yl)ethyl)phenyl)-5,6-dihydrobenzo[h]quinazolin-2-amine hydrochloride]	182 to 186
COCCN1CCN(CCc2cccc(Nc3ncc4c(n3)-c3ccccc3[C@@H](c3ccccc3F)C4)c2)CC1 (as salt: hydrochloride) [Example 164, (S)-6-(2-fluorophenyl)-N-(3-(2-(4-(2-methoxyethyl)piperazin-1-yl)ethyl)phenyl)-5,6-dihydrobenzo[h]quinazolin-2-amine]	148 to 150
Clc1ccc([C@@H]2Cc3cnc(Nc4cccc(CCN5CCCCC5)c4)nc3-c3ccccc32)cc1Cl (as salt: hydrochloride) [Example 167, (S)-6-(3,4-dichlorophenyl)-N-(3-(2-(piperidin-1-yl)ethyl)phenyl)-5,6-dihydrobenzo[h]quinazolin-2-amine hydrochloride]	165 to 169
CCCCN(C)CCc1cccc(Nc2ncc3c(n2)-c2ccccc2[C@H](c2ccc(Cl)c(Cl)c2)C3)c1 (as salt: hydrochloride) [Example 168, (S)—N-(3-(2-(butyl(methyl)amino)ethyl)phenyl)-6-(3,4-dichlorophenyl)-5,6-dihydrobenzo[h]quinazolin-2-amine hydrochloride]	162 to 166
CCCCNCCc1cc(Nc2ncc3c(n2)-c2ccccc2[C@H](c2ccccc2F)C3)ccc1F (as salt: hydrochloride) [Example 171, (R)—N-(3-(2-(butylamino)ethyl)-4-fluorophenyl)-6-(2-fluorophenyl)-5,6-dihydrobenzo[h]quinazolin-2-amine hydrochloride salt]	180 to 185
